This passage reports IC50 results from patent publication US20260125372A1, “DYNAMIN-1-LIKE PROTEIN INHIBITORS AND USES THEREOF” (Astellas Engineered Small Molecules US, Incorporated, priority 2022, published 2026).

T1 sequence (O00429 1-699 isoform O00429-4): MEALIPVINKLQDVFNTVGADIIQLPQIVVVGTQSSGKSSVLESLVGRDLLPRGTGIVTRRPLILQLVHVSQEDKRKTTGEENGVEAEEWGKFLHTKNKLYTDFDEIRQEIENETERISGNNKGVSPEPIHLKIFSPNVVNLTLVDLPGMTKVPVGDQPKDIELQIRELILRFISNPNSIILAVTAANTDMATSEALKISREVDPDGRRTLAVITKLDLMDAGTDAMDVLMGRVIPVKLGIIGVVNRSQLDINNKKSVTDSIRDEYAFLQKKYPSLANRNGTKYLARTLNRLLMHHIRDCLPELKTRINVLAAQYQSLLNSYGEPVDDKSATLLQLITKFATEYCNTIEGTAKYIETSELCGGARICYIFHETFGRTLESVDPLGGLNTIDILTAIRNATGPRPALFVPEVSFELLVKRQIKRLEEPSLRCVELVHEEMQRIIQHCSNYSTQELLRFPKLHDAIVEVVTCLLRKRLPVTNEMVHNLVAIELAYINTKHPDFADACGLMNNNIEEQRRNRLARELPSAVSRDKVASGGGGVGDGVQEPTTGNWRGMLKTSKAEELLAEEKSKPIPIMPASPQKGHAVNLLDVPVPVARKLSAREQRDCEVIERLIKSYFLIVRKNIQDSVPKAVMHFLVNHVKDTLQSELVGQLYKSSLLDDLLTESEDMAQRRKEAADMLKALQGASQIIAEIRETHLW

The experiment addresses T1, DRP1 (Homo sapiens, UniProt O00429).
T1 construct: Human DRIP1 (UniProtID: O00429.4, residues 1-699); made in house; host or cells: Escherichia coli BL21 CodonPlus DE3
As to the kind of experiment: AlphaLISA assay (His-DRP1 / MiD49-GST interaction). Format: binding. The note with it: His-DRP1 200 nM, MiD49-GST 20 nM, GMP-PNP 100 uM. Here is the method:
Human DRIP1 (UniProtID: O00429.4, residues 1-699), and human MiD49 (UnitProtIS: Q96C03.1, residues 126-454) was cloned into a pET15b vector as an N-terminal His-tag Fusion. All constructs were transformed in Escherichia coli host strain BL21 CodonPlus DE3. Bacteria was grown in LB media with 100 μg/ml ampicillin and 34 μg/ml chloramphenicol in an orbital shaker at 37° C. until OD600 reached 0.4, at which temperature was reduced to 16° C. Recombinant protein expression was expressed for 18 hr by the addition of IPTG at OD600 of about 0.8. All cultures were spun down and bacterial pellets were used for protein purification.
For His-DRP1, the pellets were resuspended in DRP-buffer A (20 mM Tris, 500 KCl, 1.89 β-ME, pH 8.0) and protease inhibitor cocktail (Roche), followed by cell disruption by sonication (400 W, pulse 3 sec on, 3 sec off, total 20 min). The lysate was centrifuged at 20,000 g and then supernatant applied to a preequilibrated Ni-NTA column with DRP-buffer A. The column was extensively washed with buffer A containing 50 mM imidazole. Purified His-DRP1 was eluted with DRP-buffer A containing 250 mM imidazole and dialyzed overnight at 4° C. (18 kDa cutoff) against DRP-buffer A to remove imidazole. For AlphaLISA, the His tag was retained on DRP1 full-length.
For MiD49-GST, the bacterial pellets were resuspended and sonicated in MID lysis buffer (25 mM Tris-HCl, pH 7.5, 500 mM NaCl, 5% glycerol, 1 mM TCEP, and 0.5% CHAPS). The lysate was pre-cleared at 20,300 g before applying to a glutathione column. Unbound proteins were washed using MID-buffer A (25 mM Tris-HCl, pH 7.5, 300 mM NaCl, 5% glycerol, 1 mM TCEP) and MID-buffer B (25 mM Tris-HCl, pH 7.5, 300 mM NaCl, 5% glycerol, 1 mM TCEP, 1 mM GSH). The protein was eluted with MID-buffer C (25 mM Tris-HCl, pH 7.5, 300 mM NaCl, 5% glycerol, 1 mM TCEP, 10 mM GSH). The target protein was concentrated in the ultra-filtration tube with MW cutoff 30 kDa and further purified by size-exclusion chromatography on a Superdex-200 column (GE Healthcare) in buffer A. Fractions containing MiD49-GST (126-454) were pooled, concentrated, flash-frozen as single-use aliquots in liquid nitrogen and stored at −80° C.
A total of 100 nl of compounds were plated in a 384-well AlphaPlate (PerkinElmer, Waltham, MA) at concentrations 100 uM to […] in DMSO (dilution by 3.165 for 11 concentration levels). Recombinant His-DRP1 (200 nM), MiD49-GST (20 nM), and GMP-PNP (100 uM) were mixed in assay buffer (PBS with 1.5% BSA, 1 mM DTT). Five microliters of the protein mixture were added to the plate and incubate at room temperature for 30 min. Glutathione donor beads and nickel chelate acceptor beads were diluted and mixed in assay buffer to obtain 40 μg/ml of each bead. Five microliters of the mixed beads were added to each well on the microplate leading to a final bead concentration of 20 µg/ml per well. The sealed plate was incubated at room temperature for 60 min and protected from light. The AlphaLISA signal was detected with an EnVision Multilabel Reader (excitation at 680 and emission 615 nm). GraphPad Prism was used to calculate the IC50 by applying sigmoidal dose-response fit (variable slope).
A general note: Bead proximity is the source of the signal in Alpha formats.
In the case of `COCCOc1cc(-c2cncs2)nc2ccc(NC(=O)C(C)COC)cc12` (centres unmarked) [Example 32, 3-methoxy-N-(4-(2-methoxyethoxy)-2-(thiazol-5-yl)quinolin-6-yl)-2-methylpropanamide], the half-maximal inhibitory concentration (IC50) (usually the concentration at which inhibition is half-maximal) lay within 500 to 1000 nM.

With `COCCOc1cc(-c2cncs2)nc2ccc(NC(=O)[C@H]3C[C@@H](OC)C3)cc12` [Example 33, cis-3-methoxy-N-(4-(2-methoxyethoxy)-2-(thiazol-5-yl)quinolin-6-yl)cyclobutane-1-carboxamide], the half-inhibitory concentration (IC50) was < 500 nM.

`COCCOc1cc(-c2cncs2)nc2ccc(NC(=O)[C@H]3C[C@H](OC)C3)cc12` [Example 34, trans-3-methoxy-N-(4-(2-methoxyethoxy)-2-(thiazol-5-yl)quinolin-6-yl)cyclobutane-1-carboxamide]: the IC50 was > 10000 nM.

Take `COCCOc1cc(-c2cncs2)nc2ccc(NC(=O)c3cnoc3)cc12` [Example 35, N-(4-(2-methoxyethoxy)-2-(thiazol-5-yl)quinolin-6-yl)isoxazole-4-carboxamide]: the IC50 was 500 to 1000 nM.

Regarding `COCCOc1cc(-c2cncs2)nc2ccc(NC(=O)[C@H](C)OC)cc12` [Example 36, (S)-2-methoxy-N-(4-(2-methoxyethoxy)-2-(thiazol-5-yl)quinolin-6-yl)propanamide], the 50% inhibitory concentration (IC50) is < 500 nM.

As to `COCCOc1cc(-c2cncs2)nc2ccc(NC(=O)[C@@H](C)OC)cc12` [Example 37, (R)-2-methoxy-N-(4-(2-methoxyethoxy)-2-(thiazol-5-yl)quinolin-6-yl)propanamide], the IC50 is < 500 nM.

Consider `COCC(C)Oc1cc(-c2cncs2)nc2ccc(NC(=O)C3COC3)cc12` (centres unmarked) [Example 38, N-(4-((1-methoxypropan-2-yl)oxy)-2-(thiazol-5-yl)quinolin-6-yl)oxetane-3-carboxamide], for which the IC50 is < 500 nM.

In turn, `COCC(C)(C)Oc1cc(-c2cncs2)nc2ccc(NC(=O)C3COC3)cc12` [Example 39, N-(4-((1-methoxy-2-methylpropan-2-yl)oxy)-2-(thiazol-5-yl)quinolin-6-yl)oxetane-3-carboxamide] yielded an IC50 of 1000 to 10000 nM.

Take `COCCOc1cc(-n2cnc(C3CC3)c2)nc2ccc(NC(=O)C3COC3)cc12` [Example 40, N-(2-(4-cyclopropyl-1H-imidazol-1-yl)-4-(2-methoxyethoxy)quinolin-6-yl)oxetane-3-carboxamide]: the IC50 was < 500 nM.

Regarding `COCCOc1cc(-n2cnc(C)c2)nc2ccc(NC(=O)C3COC3)cc12` [Example 41, N-(4-(2-methoxyethoxy)-2-(4-methyl-1H-imidazol-1-yl)quinolin-6-yl)oxetane-3-carboxamide], the IC50 is < 500 nM.

As to `O=C(Nc1ccc2nc(-n3ccnc3)cc(OCCO)c2c1)C1COC1` [Example 42, N-(4-(2-hydroxyethoxy)-2-(1H-imidazol-1-yl)quinolin-6-yl)oxetane-3-carboxamide], the IC50 was in the range of 1000 to 10000 nM.

In turn, `Cc1cn(-c2cc(OC3CC3)c3cc(NC(=O)C4COC4)ccc3n2)cn1` [Example 43, N-(4-cyclopropoxy-2-(4-methyl-1H-imidazol-1-yl)quinolin-6-yl)oxetane-3-carboxamide] showed an IC50 of 1000 to 10000 nM.

Turning to `CCOc1cc(-n2cnc(Cl)c2)nc2ccc(NC(=O)C3COC3)cc12` [Example 44, N-(2-(4-chloro-1H-imidazol-1-yl)-4-ethoxyquinolin-6-yl)oxetane-3-carboxamide], the IC50 lay within 500 to 1000 nM.

Turning to `CCOc1cc(-n2cnnc2)nc2ccc(NC(=O)C3COC3)cc12` [Example 45, N-(4-ethoxy-2-(4H-1,2,4-triazol-4-yl)quinolin-6-yl)oxetane-3-carboxamide], the 50% inhibitory concentration (IC50) was in the range of 1000 to 10000 nM.

Compound `CCOc1cc(-n2cnc(C#N)c2)nc2ccc(NC(=O)C3COC3)cc12` [Example 46, N-(2-(4-cyano-1H-imidazol-1-yl)-4-ethoxyquinolin-6-yl)oxetane-3-carboxamide] displayed an IC50 of 1000 to 10000 nM.

With `CCOc1cc(-n2cnc(C(C)(C)C)c2)nc2ccc(NC(=O)C3COC3)cc12` [Example 47, N-(2-(4-(tert-butyl)-1H-imidazol-1-yl)-4-ethoxyquinolin-6-yl)oxetane-3-carboxamide], the IC50 was > 10000 nM.

`COC[C@H](C)Oc1cc(-c2cncs2)nc2ccc(NC(=O)C(C)C#N)cc12` (stereo partly drawn) [Example 48, 2-cyano-N-(4-(((S)-1-methoxypropan-2-yl)oxy)-2-(thiazol-5-yl)quinolin-6-yl)propanamide] yielded an IC50 of 500 to 1000 nM.

Consider `COC[C@@H](C)Oc1cc(-c2cncs2)nc2ccc(NC(=O)C(C)C#N)cc12` (stereo partly drawn) [Example 49, 2-cyano-N-(4-(((R)-1-methoxypropan-2-yl)oxy)-2-(thiazol-5-yl)quinolin-6-yl)propanamide], for which the IC50 was 1000 to 10000 nM.

Regarding `COC[C@H](C)Oc1cc(-c2cncs2)nc2ccc(NC(=O)[C@H](C)OC)cc12` [Example 50, (S)-2-methoxy-N-(4-(((S)-1-methoxypropan-2-yl)oxy)-2-(thiazol-5-yl)quinolin-6-yl)propanamide], the IC50 is 1000 to 10000 nM.

`COC[C@@H](C)Oc1cc(-c2cncs2)nc2ccc(NC(=O)[C@H](C)OC)cc12` [Example 51, (S)-2-methoxy-N-(4-(((R)-1-methoxypropan-2-yl)oxy)-2-(thiazol-5-yl)quinolin-6-yl)propanamide]: the IC50 was > 10000 nM.

For `COC[C@@H](C)Oc1cc(-c2cncs2)nc2ccc(NC(=O)C3COC3)cc12` [Example 52, (R)—N-(4-((1-methoxypropan-2-yl)oxy)-2-(thiazol-5-yl)quinolin-6-yl)oxetane-3-carboxamide], the IC50 fell in the range of 1000 to 10000 nM.

On to `COCCOc1cc(-c2cnn(C)c2)nc2ccc(NC(=O)C3COC3)cc12` [Example 53, N-(4-(2-methoxyethoxy)-2-(1-methyl-1H-pyrazol-4-yl)quinolin-6-yl)oxetane-3-carboxamide], for which the IC50 lay within 500 to 1000 nM.

As to `CCOc1cc(-n2cnc(C)c2)nc2c(C)cc(NC(=O)C3COC3)cc12` [Example 54, N-(4-ethoxy-8-methyl-2-(4-methyl-1H-imidazol-1-yl)quinolin-6-yl)oxetane-3-carboxamide], the IC50 lay within 1000 to 10000 nM.
